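These data come from cells grown in 96-well plates and exposed to compound for 48 hours at five concentrations. TGI: concentration producing complete growth inhibition.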
Assays:
Experiment in all cases: NCI anticancer screen, dose series, 48 h
HCT-116 colon = system: HCT-116 colon
SF-539 CNS = system: SF-539 CNS
SR leukemia = system: SR leukemia
CAKI-1 renal = system: CAKI-1 renal
SK-MEL-5 melanoma = system: SK-MEL-5 melanoma
HOP-92 NSCLC = system: HOP-92 NSCLC
MDA-MB-231 breast = system: MDA-MB-231 breast
SK-OV-3 ovarian = system: SK-OV-3 ovarian
SF-268 CNS = system: SF-268 CNS
KM12 colon = system: KM12 colon
HS 578T breast = system: HS 578T breast
RPMI-8226 leukemia = system: RPMI-8226 leukemia
PC-3 prostate = system: PC-3 prostate
HL-60(TB) leukemia = system: HL-60(TB) leukemia
786-0 renal = system: 786-0 renal
U251 CNS = system: U251 CNS
UO-31 renal = system: UO-31 renal
NCI/ADR-RES ovarian = system: NCI/ADR-RES ovarian
DU-145 prostate = system: DU-145 prostate
K-562 leukemia = system: K-562 leukemia
NCI-H460 lung = system: NCI-H460 lung
MALME-3M melanoma = system: MALME-3M melanoma
SNB-19 CNS = system: SNB-19 CNS
MDA-N = system: MDA-N
RXF 393 renal = system: RXF 393 renal
NCI-H23 lung = system: NCI-H23 lung
SN12C renal = system: SN12C renal
MCF7 breast = system: MCF7 breast
EKVX NSCLC = system: EKVX NSCLC
A498 renal = system: A498 renal
A549 NSCLC = system: A549 NSCLC
MDA-MB-435 = system: MDA-MB-435
COLO 205 colon = system: COLO 205 colon
SK-MEL-28 melanoma = system: SK-MEL-28 melanoma
OVCAR-3 ovarian = system: OVCAR-3 ovarian
SF-295 CNS = system: SF-295 CNS
SK-MEL-2 melanoma = system: SK-MEL-2 melanoma
OVCAR-5 ovarian = system: OVCAR-5 ovarian
HOP-62 NSCLC = system: HOP-62 NSCLC
LOX IMVI melanoma = system: LOX IMVI melanoma
IGROV1 ovarian = system: IGROV1 ovarian
MOLT-4 leukemia = system: MOLT-4 leukemia
BT-549 breast = system: BT-549 breast
CCRF-CEM leukemia = system: CCRF-CEM leukemia
HCC-2998 colon = system: HCC-2998 colon
NCI-H522 lung = system: NCI-H522 lung
UACC-257 melanoma = system: UACC-257 melanoma
OVCAR-8 ovarian = system: OVCAR-8 ovarian
OVCAR-4 ovarian = system: OVCAR-4 ovarian
T-47D breast = system: T-47D breast
M14 melanoma = system: M14 melanoma
HT29 colon = system: HT29 colon
HCT-15 colon = system: HCT-15 colon
NCI-H226 lung = system: NCI-H226 lung
TK-10 renal = system: TK-10 renal
UACC-62 melanoma = system: UACC-62 melanoma
SNB-75 CNS = system: SNB-75 CNS
ACHN renal = system: ACHN renal
SW-620 colon = system: SW-620 colon

Work on CO/N=C(\C)c1cccc(Nc2c3ccccc3nc3occc23)c1 yielded a TGI (HCT-116 colon) of 21.2 µM, a TGI (SF-539 CNS) of 21.5 µM and a TGI (SR leukemia) of 16.4 µM. For the same compound, the TGI (CAKI-1 renal) was 19.2 µM, the TGI (SK-MEL-5 melanoma) was 19.1 µM and the TGI (HOP-92 NSCLC) was 43.2 µM. It also gave a TGI (MDA-MB-231 breast) of 26.1 µM, a TGI (SK-OV-3 ovarian) of 36.4 µM and a TGI (SF-268 CNS) of 31.8 µM. For the same compound, the TGI (KM12 colon) was 39.5 µM, the TGI (HS 578T breast) was 41 µM and the TGI (RPMI-8226 leukemia) was 27.7 µM. It also gave a TGI (PC-3 prostate) of over 100 µM, a TGI (HL-60(TB) leukemia) of 13.6 µM and a TGI (786-0 renal) of 29.7 µM. The TGI (U251 CNS) was 38.6 µM, the TGI (UO-31 renal) was 31.5 µM and the TGI (NCI/ADR-RES ovarian) was 15.6 µM. The TGI (DU-145 prostate) was 44.4 µM, the TGI (K-562 leukemia) was over 100 µM and the TGI (NCI-H460 lung) was 23.7 µM. For the same compound, the TGI (MALME-3M melanoma) was 34.5 µM, the TGI (SNB-19 CNS) was 45.5 µM and the TGI (MDA-N) was 15.8 µM. The TGI (RXF 393 renal) was 5.87 µM, the TGI (NCI-H23 lung) was 20.9 µM and the TGI (SN12C renal) was 38 µM. For the same compound, the TGI (MCF7 breast) was 28.6 µM, the TGI (EKVX NSCLC) was 37.2 µM and the TGI (A498 renal) was 38.9 µM. It also gave a TGI (A549 NSCLC) of 57.3 µM, a TGI (MDA-MB-435) of 6 µM and a TGI (COLO 205 colon) of 17.6 µM. For the same compound, the TGI (SK-MEL-28 melanoma) was 16.5 µM, the TGI (OVCAR-3 ovarian) was 19 µM and the TGI (SF-295 CNS) was 18.4 µM. It also gave a TGI (SK-MEL-2 melanoma) of 15.5 µM, a TGI (OVCAR-5 ovarian) of 46.8 µM and a TGI (HOP-62 NSCLC) of 20.2 µM. For the same compound, the TGI (LOX IMVI melanoma) was 27.4 µM, the TGI (IGROV1 ovarian) was 19.4 µM and the TGI (MOLT-4 leukemia) was 37.9 µM. The TGI (BT-549 breast) was 48.8 µM, the TGI (CCRF-CEM leukemia) was over 100 µM and the TGI (HCC-2998 colon) was 20.4 µM. It also gave a TGI (NCI-H522 lung) of 7.64 µM, a TGI (UACC-257 melanoma) of 25.6 µM and a TGI (OVCAR-8 ovarian) of 66.4 µM. For the same compound, the TGI (OVCAR-4 ovarian) was 18 µM, the TGI (T-47D breast) was 28.8 µM and the TGI (M14 melanoma) was 25.7 µM. It also gave a TGI (HT29 colon) of 16.7 µM, a TGI (HCT-15 colon) of 50.4 µM and a TGI (NCI-H226 lung) of 33.7 µM. For the same compound, the TGI (TK-10 renal) was 48.8 µM and the TGI (UACC-62 melanoma) was 22.5 µM.
CN(C)CCNC(=O)c1ccc(NC(=O)c2nc([N+](=O)[O-])cn2C)cc1 showed a TGI (HCT-116 colon) of over 100 µM, a TGI (SF-539 CNS) of over 100 µM and a TGI (SR leukemia) of over 100 µM. It also gave a TGI (CAKI-1 renal) of over 100 µM, a TGI (SK-MEL-5 melanoma) of over 100 µM and a TGI (HOP-92 NSCLC) of over 100 µM. For the same compound, the TGI (MDA-MB-231 breast) was over 100 µM, the TGI (SK-OV-3 ovarian) was over 100 µM and the TGI (SF-268 CNS) was over 100 µM. For the same compound, the TGI (KM12 colon) was over 100 µM, the TGI (HS 578T breast) was over 100 µM and the TGI (SNB-75 CNS) was over 100 µM. For the same compound, the TGI (RPMI-8226 leukemia) was over 100 µM, the TGI (PC-3 prostate) was over 100 µM and the TGI (HL-60(TB) leukemia) was over 100 µM. The TGI (786-0 renal) was over 100 µM, the TGI (U251 CNS) was over 100 µM and the TGI (UO-31 renal) was over 100 µM. The TGI (NCI/ADR-RES ovarian) was over 100 µM, the TGI (DU-145 prostate) was over 100 µM and the TGI (K-562 leukemia) was over 100 µM. It also gave a TGI (NCI-H460 lung) of over 100 µM, a TGI (MALME-3M melanoma) of over 100 µM and a TGI (MDA-N) of over 100 µM. It also gave a TGI (RXF 393 renal) of over 100 µM, a TGI (NCI-H23 lung) of over 100 µM and a TGI (SN12C renal) of over 100 µM. It also gave a TGI (MCF7 breast) of over 100 µM, a TGI (A498 renal) of over 100 µM and a TGI (A549 NSCLC) of over 100 µM. For the same compound, the TGI (MDA-MB-435) was over 100 µM, the TGI (COLO 205 colon) was over 100 µM and the TGI (SK-MEL-28 melanoma) was over 100 µM. It also gave a TGI (OVCAR-3 ovarian) of over 100 µM, a TGI (SF-295 CNS) of over 100 µM and a TGI (SK-MEL-2 melanoma) of over 100 µM. For the same compound, the TGI (OVCAR-5 ovarian) was over 100 µM, the TGI (HOP-62 NSCLC) was over 100 µM and the TGI (LOX IMVI melanoma) was over 100 µM. For the same compound, the TGI (IGROV1 ovarian) was over 100 µM, the TGI (ACHN renal) was over 100 µM and the TGI (MOLT-4 leukemia) was over 100 µM. For the same compound, the TGI (BT-549 breast) was over 100 µM, the TGI (CCRF-CEM leukemia) was over 100 µM and the TGI (NCI-H522 lung) was over 100 µM. For the same compound, the TGI (UACC-257 melanoma) was over 100 µM, the TGI (OVCAR-8 ovarian) was over 100 µM and the TGI (OVCAR-4 ovarian) was over 100 µM. For the same compound, the TGI (T-47D breast) was over 100 µM, the TGI (M14 melanoma) was over 100 µM and the TGI (SW-620 colon) was over 100 µM. The TGI (HT29 colon) was over 100 µM, the TGI (HCT-15 colon) was over 100 µM and the TGI (NCI-H226 lung) was over 100 µM. It also gave a TGI (TK-10 renal) of over 100 µM and a TGI (UACC-62 melanoma) of over 100 µM.

— PubChem BioAssay (NCI)
